Measurements: the Deep4Chem optical property database

Test: photoluminescence quantum yield (fraction); solvent given as SMILES

CCC1(CC)c2ccccc2-c2c1c1c(c3c2C(CC)(CC)c2cc(N(c4ccccc4)c4ccccc4)ccc2-3)C(CC)(CC)c2cc(N(c3ccccc3)c3ccccc3)ccc2-1 gave a photoluminescence quantum yield (in C1CCOC1) of 0.36.
CC(C)CCC[C@@H](C)[C@H]1CC[C@H]2[C@@H]3CC=C4C[C@@H](OC(=O)Oc5cc(/C=C/C=C/c6ccc(N(C)C)cc6)ccc5[N+](=O)[O-])CC[C@]4(C)[C@H]3CC[C@]12C gave a photoluminescence quantum yield (in C1CCCCC1) of 0.29, a photoluminescence quantum yield (in C1COCCO1) of 0.08 and a photoluminescence quantum yield (in CCCCCCC) of 0.28. For the same compound, the photoluminescence quantum yield (in Cc1ccccc1) was 0.17.
CC(C)(C)c1ccc(C#Cc2cc(C#Cc3ccc(C(C)(C)C)cc3)c(C#Cc3ccc(C(C)(C)C)cc3)c(C#Cc3ccc(C(C)(C)C)cc3)c2C#Cc2ccc(C(C)(C)C)cc2)cc1 showed a photoluminescence quantum yield (in ClCCl) of 0.41.
For CC[N+]1(CC)CN2C(=N1)C(C(=O)O)=Cc1cc(F)ccc12, the photoluminescence quantum yield (in O) was 0.344.
Compound CC1=CC(/C=C/c2ccc([N+](C)(C)C)cc2)=[N+]2C1=C(c1ccc(I)cc1)c1c(C)cc(/C=C/c3ccc([N+](C)(C)C)cc3)n1[B-]2(F)F has a photoluminescence quantum yield (in CC#N) of 0.69.
Work on N[C@@H](Cn1nnc2cc(-c3ccc(N4CCOCC4)cc3)ccc21)C(=O)O yielded a photoluminescence quantum yield (in CO) of 0.004.
For CCC1(CC)c2cc(/C=C/c3cc(C#N)c(/C=C/c4ccc5c(c4)C(CC)(CC)c4cc(N6c7ccccc7Sc7ccccc76)ccc4-5)cc3C#N)ccc2-c2ccc(N3c4ccccc4Sc4ccccc43)cc21, the photoluminescence quantum yield (in C1CCOC1) was 0.01, the photoluminescence quantum yield (in CCCCCC) was 0.11 and the photoluminescence quantum yield (in Cc1ccccc1) was 0.06. It also gave a photoluminescence quantum yield (in ClCCl) of 0.01.
F[B-]1(F)n2c(cc3c4ccccc4c4ccccc4c32)-c2ccc3ccccc3[n+]21 showed a photoluminescence quantum yield (in ClCCl) of 0.9.
Work on CC[n+]1c(C=C2C(=O)C(C=C3N(C)c4ccccc4C3(C)C)=C2[O-])sc2ccccc21 yielded a photoluminescence quantum yield (in CC(C)O) of 0.1.
CCCCN(CCCC)c1ccc(C#Cc2cc(C#Cc3ccc(N(CCCC)CCCC)cc3)c(C#Cc3cc(C(F)(F)F)cc(C(F)(F)F)c3)cc2C#Cc2cc(C(F)(F)F)cc(C(F)(F)F)c2)cc1 gave a photoluminescence quantum yield (in ClCCl) of 0.34.
In the case of N#C/C(=C/Nc1ccc(C#N)cc1)c1nc(-c2ccccc2)cs1, the photoluminescence quantum yield (in CC#N) is reported as 0, the photoluminescence quantum yield (in CCO) is reported as 0.0001 and the photoluminescence quantum yield (in CN(C)C=O) is reported as 0.0001. The photoluminescence quantum yield (in Cc1ccccc1) was 0.0001 and the photoluminescence quantum yield (in ClCCl) was 0.0001.
With F[B-]1(F)n2c(/C=C/c3ccc(C(=C(c4ccccc4)c4ccccc4)c4ccccc4)cc3)ccc2C(c2ccc(C(=C(c3ccccc3)c3ccccc3)c3ccccc3)cc2)=C2C=CC(/C=C/c3ccc(C(=C(c4ccccc4)c4ccccc4)c4ccccc4)cc3)=[N+]21 the photoluminescence quantum yield (in C1CCOC1) was 0.503.
c1ccc2c(-n3c(-c4ccc(-c5ccc(-c6nc7c8ccccc8c8ccccc8c7n6-c6cccc7ccccc67)c6ccccc56)c5ccccc45)nc4c5ccccc5c5ccccc5c43)cccc2c1 gave a photoluminescence quantum yield (in ClCCl) of 0.75.
In the case of N#C/C(=C\c1ccc(C=C(c2ccccc2)c2ccccc2)cc1)c1ccc([N+](=O)[O-])cc1, the photoluminescence quantum yield (in C1CCOC1) is reported as 0.046.
Compound CCC1(CC)c2cc(B(c3c(C)cc(C)cc3C)c3c(C)cc(C)cc3C)ccc2-c2c1c1c(c3c2C(CC)(CC)c2cc(N(c4ccccc4)c4ccccc4)ccc2-3)C(CC)(CC)c2cc(N(c3ccccc3)c3ccccc3)ccc2-1 has a photoluminescence quantum yield (in C1CCOC1) of 0.21.
N#Cc1nc2cnc(N)nc2n1Cc1ccccc1 showed a photoluminescence quantum yield (in C1COCCO1) of 0.34, a photoluminescence quantum yield (in CC#N) of 0.31 and a photoluminescence quantum yield (in CO) of 0.64. It also gave a photoluminescence quantum yield (in ClCCl) of 0.2 and a photoluminescence quantum yield (in O) of 0.88.
In the case of NCc1ccc2ccc3cccc4ccc1c2c34, the photoluminescence quantum yield (in C1CCCCC1) is reported as 0.38, the photoluminescence quantum yield (in CC#N) is reported as 0.52 and the photoluminescence quantum yield (in CO) is reported as 0.3. For the same compound, the photoluminescence quantum yield (in ClC(Cl)Cl) was 0.07.
For Cc1cccc(C)c1/C=C/c1nc(N2CCOCC2)c2c([n+]1[O-])CCCC2, the photoluminescence quantum yield (in ClCCl) was 0.29.
In the case of CC(C)(C)c1ccc2c(c1)c1cc(C(C)(C)C)ccc1n2-c1cc(C(=O)c2ccncc2)cc(-n2c3ccc(C(C)(C)C)cc3c3cc(C(C)(C)C)ccc32)c1, the photoluminescence quantum yield (in Cc1ccccc1) is reported as 0.075 and the photoluminescence quantum yield (in c1cc(-c2cccc(-n3c4ccccc4c4ccccc43)c2)cc(-n2c3ccccc3c3ccccc32)c1) is reported as 0.97.
Work on c1ccc(-c2nnc(-c3ccc(N4c5ccccc5N(c5ccccc5)c5ccccc54)cc3)o2)cc1 yielded a photoluminescence quantum yield (in Cc1ccccc1) of 0.12 and a photoluminescence quantum yield (in c1cc(-n2c3ccccc3c3ccccc32)cc(-n2c3ccccc3c3ccccc32)c1) of 0.45.
Cc1ccccc1C showed a photoluminescence quantum yield (in C1CCCCC1) of 0.26.
With C[Si](C)(C)c1ccc([Si](C)(C)C)c2ccccc12 the photoluminescence quantum yield (in C1CCCCC1) was 0.33.
COc1ccc(N(c2ccc(C=C(c3ccccc3)c3ccccc3)cc2)c2ccc(OC)cc2)cc1 showed a photoluminescence quantum yield (in Cc1ccccc1) of 0.01.
CCN(CC)c1ccc2cc(-c3cc(SC)c(C#N)c(=O)o3)c(=O)oc2c1 gave a photoluminescence quantum yield (in C1CCOC1) of 0.72, a photoluminescence quantum yield (in CC#N) of 0.56 and a photoluminescence quantum yield (in CC(C)=O) of 0.67. The photoluminescence quantum yield (in CCOC(C)=O) was 0.8, the photoluminescence quantum yield (in CN(C)C=O) was 0.4 and the photoluminescence quantum yield (in CO) was 0.55. For the same compound, the photoluminescence quantum yield (in CS(C)=O) was 0.55, the photoluminescence quantum yield (in Cc1ccccc1) was 0.72 and the photoluminescence quantum yield (in ClC(Cl)Cl) was 0.66. For the same compound, the photoluminescence quantum yield (in ClCCl) was 0.81.
CCCCCCC1(CCCCCC)c2ccccc2-c2ccc(-c3ccc(-c4cc(-c5ccccn5)nc(-c5ccccn5)c4)cc3)cc21 showed a photoluminescence quantum yield (in ClCCl) of 0.92.
Work on c1ccc(-c2nn(-c3ccccc3)c3nc4ccc(N(c5ccccc5)c5ccccc5)cc4cc23)cc1 yielded a photoluminescence quantum yield (in C1CCCCC1) of 0.76, a photoluminescence quantum yield (in C1CCOC1) of 0.7 and a photoluminescence quantum yield (in CC#N) of 0.46. For the same compound, the photoluminescence quantum yield (in CC(C)=O) was 0.59, the photoluminescence quantum yield (in CCCCCl) was 0.7 and the photoluminescence quantum yield (in CCCCOCCCC) was 0.76. It also gave a photoluminescence quantum yield (in CN(C)C=O) of 0.5.
